Measurements as given in patent publication US11279733B2, “Peptide antibiotics” (priority 2017, dated 2022).
Where two headings read alike, the source gives them in different places.

Legend:
[1] = system: P. aeruginosa ATCC 27853
In short: (§1)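 Mid-log cultures grown in Mueller Hinton broth at 37° C were tested by 2-fold broth microdilution at 5×10^5 CFU/mL final. Compounds were dissolved in water and tested over a final range of 32 to 0.015 μg/mL.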

[2] = system: A. baumannii GN_093 PmxR
In short: as §1

[3] = system: K. pneumoniae ATCC BAA-2146, NDM-1 pos
In short: as §1

[4] = system: P. aeruginosa GN_043, PmxR
In short: as §1

[5] = system: P. aeruginosa GN_105, PmxR
In short: as §1

Substance: polymyxin B sulfate [PolymyxinB, reference compound]
- MIC P. aeruginosa ATCC 27853 [1]: 0.5 µg/mL
- MIC P. aeruginosa ATCC 27853 ([1]; P. aeruginosa ATCC 27853): 0.5 µg/mL
- MIC, P. aeruginosa ATCC 27853 ([1]; Table 5): 0.5 µg/mL
- MIC, P. aeruginosa ATCC 27853 ([1]; Table 6): 0.5 µg/mL
- MIC A. baumannii GN_093 PmxR [2]: 64 µg/mL
- MIC A. baumannii GN_093 PmxR ([2]; A. baumannii GN_093 PmxR): 64 µg/mL
- MIC, A. baumannii Cl Ptyela 10073 4512:2, PmxR ([2]; Table 5, polymyxin-resistant): 64 µg/mL
- MIC A. baumannii GN_093 PmxR ([2]; Table 6, polymyxin-resistant): 64 µg/mL
- MIC A. baumannii GN_093 PmxR ([2]; polymyxin-resistant): 64 µg/mL
- MIC A. baumannii Cl Ptyela 10073 4512:2, PmxR ([2]; strain name as in Table 11): 64 µg/mL
- MIC K. pneumoniae ATCC BAA-2146, NDM-1 pos [3]: 0.25 µg/mL
- MIC K. pneumoniae ATCC BAA-2146, NDM-1 pos ([3]; K. pneumoniae ATCC BAA-2146, NDM-1 pos): 0.25 µg/mL
- MIC, K. pneumoniae ATCC BAA-2146, NDM-1 pos ([3]; Table 5): 0.25 µg/mL
- MIC, K. pneumoniae ATCC BAA-2146, NDM-1 pos ([3]; Table 6): 0.25 µg/mL
- MIC P. aeruginosa GN_043, PmxR [4]: 64 µg/mL
- MIC P. aeruginosa GN_043, PmxR ([4]; P. aeruginosa GN_043, PmxR): 64 µg/mL
- MIC, P. aeruginosa FADDI-PA070, PmxR ([4]; Table 5, polymyxin-resistant): 64 µg/mL
- MIC P. aeruginosa GN_043, PmxR ([4]; Table 6, polymyxin-resistant): 64 µg/mL
- MIC P. aeruginosa GN_043, PmxR ([4]; polymyxin-resistant): 64 µg/mL
- MIC, P. aeruginosa FADDI-PA070, PmxR ([4]; strain name as in Table 11): 64 µg/mL
- MIC P. aeruginosa GN_105, PmxR [5]: >128 µg/mL
- MIC P. aeruginosa GN_105, PmxR ([5]; P. aeruginosa GN_105, PmxR): >128 µg/mL
- MIC, P. aeruginosa PA9704, PmxR ([5]; Table 5, polymyxin-resistant): >128 µg/mL
- MIC P. aeruginosa GN_105, PmxR ([5]; Table 6, polymyxin-resistant): >128 µg/mL
- MIC P. aeruginosa GN_105, PmxR ([5]; polymyxin-resistant): >128 µg/mL
- MIC P. aeruginosa PA9704, PmxR ([5]; strain name as in Table 11): >128 µg/mL
